The subject of one test is canine platelets. Kind of test: Canine platelet aggregation in vitro (ADP, arachidonic acid, collagen). The test is classed as cell-based, dog. On the procedure:
(§1) Platelet counts and ex vivo aggregation studies were performed one hour before and 1, 3, and 5 hours after application of anodal direct current.
Epinephrine (550 nM) was used to prime platelets before stimulation with arachidonic acid. Peptides were added in 1% dilutions to the PRP solutions.

Test [1] addresses T1, vitronectin receptor (Vn-R) (Homo sapiens, UniProt P05106+P06756).
T1 construct: from tissue; host or cells: human placenta
Kind of test: Vitronectin receptor binding (ELISA or liposome attachment assay). The settings on record: read-out: VnR Binding (IC50), purified receptor. Background: In an ELISA, binding on a coated surface is turned into a signal by an enzyme label.
Experimental: Receptor and ligand purifications were performed according to the methods in this Example or those in Example XI.C. Receptors were purified according to the procedures of Pytela et al. (Methods Enzymol. 144:475 (1987)), incorporated herein by reference. […] Except where stated, all procedures were carried out at 4° C. The peptide column was washed with three volumes of Tris-buffered saline (TBS) containing 1 mM Ca^2+ and 25 mM OG and then with TBS containing 1 mM Ca^2+ and 25 mM octyl thioglucoside (OTG) at room temperature. […] Finally, Ca^2+ and Mg^+2 were added to eluted fractions to achieve final concentrations of 1 mM for both ions.
Maxisorp microtiter plates were coated with 2 μg/ml human vitronectin dissolved in PBS (50 ml/well) and stored overnight at 4° C. The plates were washed two times with PBS-0.05% Tween-20 (wash buffer) and blocked by incubating with about 150 μl/well of assay buffer (1%, BSA (RIA grade or better) in 50 mM Tris-HCl, 100 mM NaCl, 1 mM MgCl2, CaCl2, MnCl2 pH 7.4) for 60 minutes. […] The plates were read at 492-405 nm and the data analyzed by four-parameters fit. […]
In parallel studies with the platelet aggregation experiments (described in Example V), the apparent affinities of peptides for GP IIb/IIIa, fibronectin and vitronectin receptors were determined. […]
Those for VnR and GP IIb/IIIa were determined either by ELISA or liposome attachment assay (Example IV).

The test system of the next test is αvβ5. As to the kind of experiment: αvβ5 ELISA IC50 (μM). The source says: Table printed on a drawing sheet, FIG. 20
Title: Modifications of R(Pmc)GHRGD(Y-OMe)RCR
Head of the field: αvβ5 ELISA IC50 (μM)
First copying reader's note: Footnote marks a, b and c are printed but their texts are not on the sheet; the underlined part of each sequence (Pmc to C) marks the cyclic portion, and D in (DH) and (DY) is a small capital for the D-amino acid.
Where the first naming reader finds the target: head: αvβ5 ELISA IC50 (μM)

The test system of test [2] is platelets. As to the kind of experiment: Ex vivo inhibition of platelet aggregation (Table IV). It counts as in vivo, dog. As to conditions: dose as listed per peptide (bolus ± infusion). On the procedure:
(§2) Platelet aggregation assays were performed following the methods of this Example or those of Example IX.G. Platelet aggregation was assessed using the method of Born, (Nature 194:927-929 (1962)), incorporated herein by reference. Briefly, the change in light transmission was measured through a stirred suspension of platelets in an aggregometer (Model 400 VS, Chrono-Log, Havertown, Pa., USA). Studies employing ADP were performed with platelet-rich plasma (PRP), which was obtained by low-speed centrifugation (200×g for 10 min.) of whole blood freshly drawn into trisodium citrate (at a final concentration of 11 mM). In studies using thrombin, the PRP was gel-filtered on Sepharose 2B in divalent ion-free Tyrode's solution containing 2% BSA. For all studies, the reference standard was platelet-poor plasma, which was obtained by centrifuging PRP at 1000×g for 5 min.
as §1
Using the method described in Example V to measure ex vivo inhibition of platelet aggregation and the method described in Example VII to measure bleeding, four additional peptides were tested. These peptides included 11J, 11Q, 11K and 11V.

The target in test [3] is platelets (Homo sapiens, UniProt P05106+P08514). As to the kind of experiment: Platelet aggregation assay (Examples XI.G and XII). It counts as cell-based. The settings on record: comparator analogue 32. On the procedure: as §2, with “Platelet” for “Platelet aggregation assays were performed following the methods of this Example or those of Example IX.G. Platelet”, “Nature” for “(Nature”, “(1962),” for “(1962)),”
All aggregation studies were performed at 37° C. with a constantly stirred suspension of 3×10^8 platelets/mL. (Platelet count was determined with the aid of a hemacytometer.) Peptides and stimulants were added to these suspensions in 1% dilutions. The PRP and gel-filtered platelets were used within three hours from the time of blood collection.
(§3) The peptides described in this Example were synthesized according to the methods of Examples I and XI. Selectivity and potency were measured according to the methods of Examples II through XI. The peptide identification numbers used in this Example are consistent and relevant to this Example only. Some of the peptides are identified by other nomenclature elsewhere in this document.

Test [4] relates to platelets. As to the kind of experiment: Ex vivo platelet aggregation in dogs (Example XII.H). Also on record: species or system dog; dose or concentration left out as unconfirmed. On the procedure: More importantly, several peptides in FIG. 23 were administered to dogs (according to the method of Example VII) at doses capable of inhibiting ex vivo platelet aggregation by >95%.
The bleeding time indicated in the parentheses was measured at a five-fold higher concentration of peptide. […]

For another test, the target named is T2, αIIbβ3 (Homo sapiens, UniProt P05106+P08514).
T2 construct: Platelet glycoprotein IIb/IIIa was purified from outdated human platelets; from tissue; host or cells: outdated human platelets
As to the kind of experiment: αIIbβ3 (IIb/IIIa-fibrinogen) ELISA of Example XII. The test is classed as binding. As to conditions: comparator analogue 1. On the procedure:
Microtiter plates were coated overnight at room temperature with 110 μL of human fibrinogen (at 10 μg/mL) diluted in TBS. The plates were then washed three times with 200 μL per well of TBS+0.05% Tween-20. Fifty (50) μL of purified IIb/IIIa diluted in TBS with 20 mM octylglucoside, 2 mM MgCl2 and 2 mM CaCl2 were added to the wells. Fifty (50) μLs of peptide in the same buffer were then added in 10-fold serial dilutions and the plates were incubated for three hours at room temperature. The plates were washed three times with TBS-Tween and 100 μL of rabbit anti-IIb/IIIa were added to each well. After a two hour room temperature incubation, the plates were washed and the remaining steps done as described for the FnR ELISA.
as §3

For test [5], the system named is prosthetic arterial graft thrombosis. Kind of test: Platelet and fibrinogen uptake by Gore-Tex arterial grafts in ex vivo shunt. Also on record: species or system baboon. On the procedure:
Adult male baboons (weighing 16 to 25 kg) were used in these studies. These were sedated with ketamine hydrochloride (200 to 250 mg intramuscular injection) and maintained under anesthesia with sodium pentobarbital (50 to 75 mg administered intravenously as necessary).
Twenty-four hours before the ex vivo shunt was established, platelets were isolated from 500 ml of blood from the test animal and labelled with ca. 500 microcuries of indium-111 oxine (Medi+Physics, Emeryville, Calif.), which irreversibly and specifically binds to platelets with an efficiency of 50%. Immediately after labelling, these platelets were then injected back into the animal and allowed to circulate for 24 hours. Immediately before the start of the study, fibrinogen that had been isolated from the animal and labelled with iodine-131 (DuPont Nuclear, Boston, Mass.) was also injected back into the animal. Also at this time, baseline determinations of the clotting and template bleeding times were made, and blood samples were drawn for hematology studies.
To establish the ex vivo shunt, the femoral artery and vein were percutaneously cannulated with introducer catheters (KMA Inc., Mansfield, Mass.). The catheters were then connected to medical-grade, heparin-coated silastic tubing (2.59 mm internal diameter, (Extracorporeal Medical Specialties, Inc., King of Prussia, Pa.). […] Finally, a 5 cm-long test segment of a 4 mm (internal diameter) vascular graft was inserted at the apex of the circuit. The graft used in these studies was Gore-tex (expanded polytetrafluoroethylene, (W. L. Gore and Associates, Inc., Flagstaff, Ariz.). An electromagnetic flow probe was then inserted into the tubing circuit to measure blood flow, which was maintained at 100 ml/min. by varying the resistance imported by a partially occluding screw clamp that was distal to the probe. Finally, a 5 cm-long test segment of a 4 mm (internal diameter) vascular graft was inserted at the apex of the circuit. The graft used in these studies was Gore-tex (expanded polytetrafluoroethylene, W. L. Gore and Associates, Inc., Flagstaff, Ariz.).
Platelet deposition onto the grafts was monitored by dynamic scanning with a gamma camera (Sigma 400, Ohio Nuclear, Inc., Sohon, Ohio), which detects the gamma radiation emitted by the ^111indium-labelled platelets. Once the circuit was in place, the animal was placed under this camera, and blood flow was initiated. Scans were then taken at the rate of one frame per two minutes for two hours. The data from these scans were collected on a dedicated Digital MDA computer (Maynard, Mass.). […]

In test [6] the test system is platelets. Kind of test: Ex vivo platelet aggregation in the canine coronary thrombosis study. Also on record: species or system dog. As to conditions: 10 mg/kg injection; 1, 3 and 5 h. On the procedure: For all ex vivo studies (see FIG. 3), control aggregation values were standardized to the percentages of light transmission observed in PRP and PPP samples (0% and 100%, respectively).
(§4) Animals were randomly assigned to two treatment groups: vehicle control (i.e., normal saline) or RGD peptides at various concentrations. Peptides were administered intra-atrially in both bolus and continuous injections. Each bolus injection consisted of 0.5 to 10 mg/kg and was administered 15 minutes before application of the current. A continuous infusion of the same peptide was then started immediately after completion of this initial injection. Animals received a 25 μg/kg/min to 200 μg/kg/min infusion. The anti-thrombotic effects of the peptides were monitored until 30 minutes after the occurrence of a persistent, occlusive thrombus or five hours after the initiation of electrical stimulation (whichever resulted first). If an occlusive thrombus had not developed within four hours after the initiation of current, the peptide infusion was stopped.
as §1
Platelet aggregation was also determined ex vivo at one, three, and five hours after current application. For these studies, arachidonic acid, or collagen was again used to stimulate the platelets.

In test [7] the test system is platelets. As to the kind of experiment: Ex vivo platelet aggregation on PRP of baboon. The test is classed as in vivo. As to conditions: animal 2; ADP 10 μm; 0, 1 and 2 hours. On the procedure:
At one- and two-hour time points, template bleeding times were measured, and blood samples were drawn to assess the hematology aggregation studies. Platelet aggregation studies were performed as described in Example V using ADP as the stimulus.
In addition, platelet aggregation studies were conducted on PRP derived from the second animal. Whole blood was drawn at three time points (0, 1 and 2 hours) of both control and experimental shunts.

For the next test, the system named is coronary thrombosis. Kind of test: Electrically induced canine coronary thrombosis (time to full occlusion). The settings on record: 10 mg/kg. It counts as in vivo, dog. On the procedure:
Male mongrel dogs weighing 14 to 20 kg were selected based on proper aggregation of their platelets in response to arachidonic acid, collagen, and adenosine disphosphate (ADP) and based on similar weights and hemodynamic properties.
Before surgery, the animals were anesthetized with sodium pentobarbital (30 mg/kg, i.v.) and then intubated and ventilated on room air with positive pressure using a respirator (Harvard Apparatus, S. Natick, Mass.) at a volume of 30 ml/kg and a frequency of 12 breaths/min. Surgery, performed under aseptic conditions, was begun with the placement of cannulae into the left carotid artery and jugular vein for monitoring arterial blood pressure (Statham P23 pressure transducer, Gould, Inc., Cardiovascular Products, Oxnard, Calif.) and administering intravenous fluids.
The heart was exposed via a left thoracotomy through the 5th intercostal space. A 2-cm segment of the left circumflex coronary artery (LCCA) was isolated from surrounding tissue by blunt dissection. […] The intra-coronary electrode was constructed by attaching a 25-gauge hypodermic needle tip to a 30-gauge Teflon-insulated silver-coated copper wire. The mechanical occluder was constructed of stainless steel in a C shape with a Teflon screw (2 mm diameter) on top. It was adjusted to control vessel circumference and decrease the reactive hyperemic flow due to a 10-sec (full) occlusion by 50-70% without affecting basal coronary blood flow (FIG. 1). A monopolar epicardial electrode was sutured to the surface of the ventricle in the region of LCCA distribution to monitor ischemic changes in the electrocardiogram (ECG). The left atrium was cannulated with polythylene tubing for administration of the peptide. Continuous recordings of blood pressure, limb lead II ECG, epicardial electrogram, and mean and phasic LCCA blood flow were obtained on a Model 7 polygraph (Grass Instrument Co., Quincy, Mass.).
One hour after the completion of surgery, a 100 micro-amp continuous anodal direct current delivered from a 9 volt nickel-cadmium battery was applied to the intimal surface of the LCCA. The anode of the battery was in series with a 250,000 ohm potentiometer and the intraluminal coronary artery electrode. The electric circuit was completed by placing the cathode in a subcutaneous site. Electrical stimulation was applied for three hours. At the conclusion of each experiment, the heart was fibrillated electrically and quickly removed, and the LCCA was dissected free as far as possible to verify the position of the implanted anodal electrode.
as §4
Coronary thrombosis was quantified as the time to full occlusion. The effects of the various peptide treatments on coronary thrombosis is illustrated in FIG. 4.

Where [8] appears, read: animal 1, two bolus IV injections of 10 mg/kg.
[9] abbreviates: animal 2, 10 mg/kg bolus IV + 10 mg/kg/hr infusion for 2 h.

pIC50: −log10 of the molar value. Where two headings read alike, the source gives them in different places.

Chain of platelets (Homo sapiens, UniProt P05106+P08514) (P08514 32-1039): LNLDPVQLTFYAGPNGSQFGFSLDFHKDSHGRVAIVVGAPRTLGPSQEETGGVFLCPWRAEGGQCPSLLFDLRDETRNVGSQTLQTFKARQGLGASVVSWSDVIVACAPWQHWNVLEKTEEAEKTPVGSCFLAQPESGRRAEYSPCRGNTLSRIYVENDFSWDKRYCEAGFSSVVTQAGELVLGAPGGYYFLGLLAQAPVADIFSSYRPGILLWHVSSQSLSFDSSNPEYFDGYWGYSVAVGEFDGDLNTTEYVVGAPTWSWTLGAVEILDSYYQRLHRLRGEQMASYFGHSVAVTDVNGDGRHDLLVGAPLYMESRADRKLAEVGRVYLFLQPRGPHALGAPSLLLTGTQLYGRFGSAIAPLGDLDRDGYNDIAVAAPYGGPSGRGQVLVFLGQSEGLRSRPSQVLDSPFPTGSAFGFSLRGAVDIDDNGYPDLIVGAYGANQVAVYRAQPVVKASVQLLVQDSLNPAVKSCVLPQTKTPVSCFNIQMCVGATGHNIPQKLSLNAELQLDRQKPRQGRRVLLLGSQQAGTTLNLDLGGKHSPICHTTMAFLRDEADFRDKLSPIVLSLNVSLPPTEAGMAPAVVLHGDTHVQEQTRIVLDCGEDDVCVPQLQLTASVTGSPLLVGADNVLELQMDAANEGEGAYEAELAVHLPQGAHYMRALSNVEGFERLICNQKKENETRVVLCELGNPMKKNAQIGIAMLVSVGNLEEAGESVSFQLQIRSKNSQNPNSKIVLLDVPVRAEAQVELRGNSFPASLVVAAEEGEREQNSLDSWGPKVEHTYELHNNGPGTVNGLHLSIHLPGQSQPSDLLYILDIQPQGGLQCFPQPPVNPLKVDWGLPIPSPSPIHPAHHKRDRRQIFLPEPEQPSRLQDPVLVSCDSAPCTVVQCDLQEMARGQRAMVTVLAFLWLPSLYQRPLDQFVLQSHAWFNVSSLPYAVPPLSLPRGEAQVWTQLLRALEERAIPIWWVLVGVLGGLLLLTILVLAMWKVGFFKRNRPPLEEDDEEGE
Chain of platelets (Homo sapiens, UniProt P05106+P08514) (P05106 27-788): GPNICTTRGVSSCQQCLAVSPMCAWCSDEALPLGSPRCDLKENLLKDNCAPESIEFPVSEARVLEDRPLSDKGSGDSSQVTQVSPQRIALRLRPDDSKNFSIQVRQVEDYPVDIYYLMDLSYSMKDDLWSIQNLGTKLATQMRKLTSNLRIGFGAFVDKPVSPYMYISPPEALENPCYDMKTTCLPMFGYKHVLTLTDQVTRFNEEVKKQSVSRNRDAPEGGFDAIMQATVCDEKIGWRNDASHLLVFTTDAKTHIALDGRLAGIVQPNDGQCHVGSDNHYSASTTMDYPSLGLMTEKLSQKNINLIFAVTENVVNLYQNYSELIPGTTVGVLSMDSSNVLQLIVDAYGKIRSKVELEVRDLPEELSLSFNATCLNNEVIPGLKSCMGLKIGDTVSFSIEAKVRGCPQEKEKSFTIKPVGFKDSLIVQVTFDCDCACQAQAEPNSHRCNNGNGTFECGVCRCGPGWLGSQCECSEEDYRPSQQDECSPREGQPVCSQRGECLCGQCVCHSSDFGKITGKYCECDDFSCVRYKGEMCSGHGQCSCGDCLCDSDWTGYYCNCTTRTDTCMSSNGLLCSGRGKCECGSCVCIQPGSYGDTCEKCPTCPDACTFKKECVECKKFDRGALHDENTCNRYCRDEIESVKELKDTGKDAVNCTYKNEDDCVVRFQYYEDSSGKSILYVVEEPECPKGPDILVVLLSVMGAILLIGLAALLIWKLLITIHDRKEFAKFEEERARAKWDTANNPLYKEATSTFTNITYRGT
T1 sequence (P06756 31-889 limits assumed): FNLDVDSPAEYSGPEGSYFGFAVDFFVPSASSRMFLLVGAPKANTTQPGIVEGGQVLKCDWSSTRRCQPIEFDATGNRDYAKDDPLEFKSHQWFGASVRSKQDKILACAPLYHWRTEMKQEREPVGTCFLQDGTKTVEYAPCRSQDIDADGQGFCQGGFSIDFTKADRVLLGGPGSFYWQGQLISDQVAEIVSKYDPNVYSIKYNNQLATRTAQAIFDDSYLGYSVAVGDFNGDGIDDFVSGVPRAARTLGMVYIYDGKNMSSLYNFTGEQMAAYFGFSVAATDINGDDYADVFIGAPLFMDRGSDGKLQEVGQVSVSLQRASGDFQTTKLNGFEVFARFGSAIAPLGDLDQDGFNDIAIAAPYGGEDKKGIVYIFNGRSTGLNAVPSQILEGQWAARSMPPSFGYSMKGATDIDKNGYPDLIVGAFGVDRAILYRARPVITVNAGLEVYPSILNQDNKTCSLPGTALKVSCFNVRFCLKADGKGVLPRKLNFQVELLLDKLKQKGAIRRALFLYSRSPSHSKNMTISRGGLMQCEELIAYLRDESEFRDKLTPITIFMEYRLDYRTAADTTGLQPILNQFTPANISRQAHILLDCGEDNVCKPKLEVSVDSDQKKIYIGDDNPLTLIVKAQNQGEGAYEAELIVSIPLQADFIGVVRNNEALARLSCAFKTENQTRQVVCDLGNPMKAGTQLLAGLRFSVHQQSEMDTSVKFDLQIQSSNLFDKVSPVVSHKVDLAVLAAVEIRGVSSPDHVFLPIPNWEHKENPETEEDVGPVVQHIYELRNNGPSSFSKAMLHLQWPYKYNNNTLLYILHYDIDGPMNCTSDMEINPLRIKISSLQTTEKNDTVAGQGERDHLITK
T1 sequence (P06756 891-1048 limits assumed): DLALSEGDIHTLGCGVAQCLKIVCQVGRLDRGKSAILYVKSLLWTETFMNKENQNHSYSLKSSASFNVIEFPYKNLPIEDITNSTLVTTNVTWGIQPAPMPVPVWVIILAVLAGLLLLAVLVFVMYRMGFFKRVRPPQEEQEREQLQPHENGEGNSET
T1 sequence (P05106 27-788): as the sequence (P05106 27-788) above
T2 sequence (P08514 32-887 limits assumed): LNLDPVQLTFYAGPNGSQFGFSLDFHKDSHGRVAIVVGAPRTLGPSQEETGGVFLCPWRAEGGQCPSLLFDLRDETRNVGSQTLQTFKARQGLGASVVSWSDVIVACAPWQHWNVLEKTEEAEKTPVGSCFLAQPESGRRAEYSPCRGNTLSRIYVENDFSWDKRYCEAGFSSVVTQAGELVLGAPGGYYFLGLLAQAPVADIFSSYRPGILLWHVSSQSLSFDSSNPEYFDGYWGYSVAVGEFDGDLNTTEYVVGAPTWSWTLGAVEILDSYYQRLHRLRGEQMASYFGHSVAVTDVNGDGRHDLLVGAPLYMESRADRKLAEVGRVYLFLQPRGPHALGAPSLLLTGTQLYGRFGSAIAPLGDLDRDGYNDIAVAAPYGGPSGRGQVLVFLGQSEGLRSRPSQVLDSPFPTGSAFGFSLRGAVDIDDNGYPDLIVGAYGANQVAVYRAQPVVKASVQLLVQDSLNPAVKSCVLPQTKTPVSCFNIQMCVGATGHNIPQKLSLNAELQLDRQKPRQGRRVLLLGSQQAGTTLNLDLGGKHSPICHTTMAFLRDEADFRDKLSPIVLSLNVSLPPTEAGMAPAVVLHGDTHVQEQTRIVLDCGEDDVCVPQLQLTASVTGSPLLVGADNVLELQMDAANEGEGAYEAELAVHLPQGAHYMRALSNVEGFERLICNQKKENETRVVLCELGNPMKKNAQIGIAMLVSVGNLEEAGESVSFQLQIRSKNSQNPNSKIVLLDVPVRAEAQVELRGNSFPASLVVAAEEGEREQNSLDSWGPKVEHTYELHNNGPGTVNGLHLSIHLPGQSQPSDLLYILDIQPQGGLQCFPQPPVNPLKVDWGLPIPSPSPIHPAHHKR
T2 sequence (P08514 891-1039 partner limits assumed): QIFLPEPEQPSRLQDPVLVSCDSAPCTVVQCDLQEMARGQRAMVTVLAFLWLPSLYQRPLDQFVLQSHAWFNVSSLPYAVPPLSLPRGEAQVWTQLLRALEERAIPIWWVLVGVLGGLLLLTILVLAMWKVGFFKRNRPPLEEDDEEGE
T2 sequence (P05106 27-788): as the sequence (P05106 27-788) above

For the substance GRGDSP [reference compound], in the test with canine platelets (all three responses (ADP, arachidonic acid, collagen), read-out: concentration inhibiting canine platelet aggregation by 50%), the pIC50 is around 3.89.
As to G(Pen)IARGDWNCA, in test [1], the pIC50 is 7.40.
In the case of R(Pmc)G(DY)RGD(Y-OMe)RCR [compound 25], the pIC50 with αvβ5 is 5.00.
As for Ac-CNPRGD(Y-OMe)AC-NH2 [11K], the “ex vivo inhibition platelet aggregation” value in the test with platelets [2] is reported as above 98%. Further, at platelets [3], the “platelet aggregation potency compared with analogue 32” value was “substantial decreases”.
Turning to Ac-CNPRGD(Y-OMe)RCNH2 [8X], in the test on platelets [4], the “inhibition of ex vivo platelet aggregation” value is on record as above 95%.
G(dPen)GHRGDLRCA: the “fold more potent than analogue 1 in the αIIbβ3 assay” value at αIIbβ3 is “approximately 2 fold”.
In the test on αvβ5, R(Pmc)GYRGD(Y-OMe)RCR [compound 24] gave a pIC50 of 5.06.
G(Pen)GHRGDLRCA [2G]: in [5] (setting [8]), the “reduction in 111In-platelet uptake by graft” value worked out at 90% and the “reduction in 131I-fibrinogen uptake by graft” value amounted to 79%. Further, in [5] (setting [9]), the “reduction in labelled fibrinogen uptake by graft” value is 78% and the “reduction in labelled platelet uptake by graft” value worked out at 84%. Further, in the test with platelets [6], the “effect on ADP-stimulated ex vivo aggregation” value is “substantially inhibited”, the “inhibition of AA-stimulated ex vivo aggregation relative to control” value is on record as 43-70% and the “inhibition of collagen-stimulated ex vivo aggregation relative to control” value is reported as 12-50%. Besides, in the test with platelets [7], the “ex vivo platelet aggregation response” value is reported as “completely unresponsive to the peptide treatment”. The “coronary thrombosis: time to full occlusion” value in the test on coronary thrombosis was “did not significantly influence”. Moreover, the pIC50 with canine platelets (10 μm ADP, […] arachidonic acid or 9.6 micrograms/ml collagen, canine PRP, read-out: IC50 against canine platelet aggregation) was 4.52 to 4.82.
For Ac-CNPRGD(Y-OMe)EC-NH2 [11J], the “ex vivo inhibition platelet aggregation” value with platelets [2] is above 98%. In addition, at platelets [3], the “fold decrease in potency versus analogue 32” value is reported as 15 fold.
With R(Pmc)GPRGD(Y-OMe)RCR [compound 26], the pIC50 with αvβ5 was 5.77.

The values above are taken from patent US6521594B1, “Method and composition for treating thrombosis” (La Jolla Cancer Research Foundation, priority 1990, dated 2003).
